test: Fragrance screen for chemical compatibility with a PAA solution; assay type: physicochemical
Experimental: A number of fragrances were tested with a PAA solution to screen for chemical compatibility. […] Additionally, “Blackberry Sage Tea” fragrance in combination with the vinegar-like order from the PAA in the sample was not appealing to volunteers who agreed to sample the sample lotion formulation.

| Time within which the fragrance degrades PAA [days] | SMILES |
| --- | --- |
| 3 to 5 | CC/C=C\CCO [cis-3-hexen-1-ol] |
| 3 to 5 | CC(=O)OCCC(C)CCC=C(C)C (stereo not drawn) [citronellyl acetate] |
| 3 to 5 | CC(=O)OC/C=C(/C)CCC=C(C)C [neryl acetate] |

Source: patent US9044403B2, “Sporicidal hand sanitizing lotion” (Medivators Inc., priority 2008, dated 2015)
